This passage reports activation results from patent publication US20230107216A1, “PANTETHEINE DERIVATIVES AND USES THEREOF” (Comet Therapeutics, Inc., priority 2018, published 2023).

This experiment has as its system Methylmalonic Acidemia (MMA) primary fibroblasts GM01673. Description: Mitochondrial respiration, XFe96 Extracellular Flux Analyzer (OCR/ECAR), MMA fibroblasts GM01673. As to conditions: Homo sapiens, Fibroblast. It counts as cell-based. The method in brief: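 Primary fibroblasts (20000 cells/well) were held 24 h in supplemented DMEM before Seahorse OCR/ECAR profiling. Compounds at 10 to 50 μM or 0.1% DMSO were injected after baseline, then oligomycin 1 μg/ml, FCCP, and rotenone/antimycin A 0.5 μM. Values were normalized to Hoechst nuclear counts, baselined to pre-compound, and expressed relative to vehicle.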

Where [1] appears, read: assay condition D (1 mM glucose, 10% FBS), read-out: Increase in Maximal Respiratory Capacity AUC.
Setting [2] is: assay condition A (10 mM glucose, 2 mM L-glutamine, 1 mM pyruvate, 10% FBS), read-out: Increase in Maximal Respiratory Capacity AUC.

Like-named read-outs stand apart in the source and are kept apart here.

As to `CC(C)(CO)[C@@H](O)C(=O)NCCC(=O)NCCSC(=O)CC(=O)CCC(=O)O` [Compound 2, 6-[(2-[3-[(2R)-2,4-dihydroxy-3,3-dimethylbutanamido]propanamido]ethyl)sulfanyl]-4,6-dioxohexanoic acid], the activation at 10 µM (assay condition D (1 mM glucose, 10% FBS), read-out: Increase in Spare Capacity AUC) is ≥ 50%.
In the case of `CC(C)(CO)[C@@H](O)C(=O)NCCC(=O)NCCSC(CC(=O)OCC[N+](C)(C)C)C(=O)O` (stereo partly drawn) [Compound 51, [2-([3-carboxy-3-[(2-[3-[(2R)-2,4-dihydroxy-3,3-dimethylbutanamido]propanamido]ethyl)sulfanyl]propanoyl]oxy)ethyl]trimethylazanium], the activation at 10 µM under setting [1] is ≥ 10%.
As for `COC(=O)CC(SCCNC(=O)CCNC(=O)[C@H](O)C(C)(C)COC(C)=O)C(=O)OC` (stereo partly drawn) [Compound 149, 1,4-dimethyl 2-[(2-[3-[(2R)-4-(acetyloxy)-2-hydroxy-3,3-dimethylbutanamido]propanamido]ethyl)sulfanyl]butanedioate], under setting [1], the activation at 10 µM is ≥ 10%.
For `CC(C)(CO)[C@@H](O)C(=O)NCCC(=O)NCCSC(=O)CCCN` [Compound 370, (2R)—N-[2-([2-[(4-aminobutanoyl)sulfanyl]ethyl]carbamoyl)ethyl]-2,4-dihydroxy-3,3-dimethylbutanamide], the activation at 10 µM under setting [1] was ≥ 10%.
On the same count and under the same terms, the figure for `CC(C)(CO)[C@@H](O)C(=O)NCCC(=O)NCCSC(=O)[C@@H](N)Cc1ccc(O)c(O)c1` [Compound 371, (2R)—N-[2-[(2-[[(2S)-2-amino-3-(3,4-dihydroxyphenyl)propanoyl]sulfanyl]ethyl)carbamoyl]ethyl]-2,4-dihydroxy-3,3-dimethylbutanamide] is ≥ 10%.
With `CCCCCCC(=O)SCCNC(=O)CCNC(=O)[C@H](O)C(C)(C)CO` [Compound 372, (2R)—N-(2-[[2-(heptanoylsulfanyl)ethyl]carbamoyl]ethyl)-2,4-dihydroxy-3,3-dimethylbutanamide], the activation at 10 µM (assay condition A (10 mM glucose, 2 mM L-glutamine, 1 mM pyruvate, 10% FBS), read-out: Increase in Spare Capacity AUC) is ≥ 10%.
Take `COC(=O)CC(C(C)=O)C(=O)SCCNC(=O)CCNC(=O)[C@H](O)C(C)(C)CO` (stereo partly drawn) [Compound 410]: for the setting “assay condition A (10 mM glucose, 2 mM L-glutamine, 1 mM pyruvate, 10% FBS), 50 μM, read-out: Increase in Spare Capacity AUC”, the activation at 50 µM was ≥ 10%.
With `CC(=O)SCCNC(=O)CCNC(=O)[C@H](O)C(C)(C)COC(=O)[C@H](C)N` [Compound 502, (3R)-3-[(2-[[2-(acetylsulfanyl)ethyl]carbamoyl]ethyl)carbamoyl]-3-hydroxy-2,2-dimethylpropyl (2S)-2-aminopropanoate], the activation at 10 µM under setting [2] was ≥ 10%.
`CC(C)(CO)[C@@H](O)C(=O)NCCC(=O)NCCSC(=O)CCCO` [Compound 1304, (2R)-2,4-dihydroxy-N-[2-([2-[(4-hydroxybutanoyl)sulfanyl]ethyl]carbamoyl)ethyl]-3,3-dimethylbutanamide]: under setting [2], the activation at 10 µM was ≥ 10%.
